In patent US6737383B1, “Herbicidal oxadiazolidines” (priority 1999, dated 2004):

What was measured:
[1] = tested on: arrowleaf sida; assay: Test C postemergence arrowleaf sida; format: in vivo, Sida rhombifolia; conditions: 0 to 100 scale, 0 no effect, 100 complete control
How it was run: (§1)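 Soil: sandy loam/potting mix 60:40. Treatment: postemergence, solvent + surfactant formulation. Readout: visual control score 0–100 vs untreated at ~14–21 days.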

[2] = tested on: lambsquarters; assay: Test C postemergence lambsquarters; format: in vivo, Chenopodium album; conditions: 0 to 100 scale, 0 no effect, 100 complete control
How it was run: as §1

[3] = tested on: redroot pigweed; assay: Test C postemergence redroot pigweed; format: in vivo, Amaranthus retroflexus; conditions: 0 to 100 scale, 0 no effect, 100 complete control
Description: (§2) Compounds evaluated in this test were formulated in a non-phytotoxic solvent mixture which included a surfactant and applied to plants that were grown for various periods of time before treatment (postemergence application). A mixture of sandy loam soil and greenhouse potting mix in a 60:40 ratio was used for the postemergence test.
Plantings of these crops and weed species were adjusted to produce plants of appropriate size for the postemergence test. All plant species were grown using normal greenhouse practices. Crop and weed species include arrowleaf sida (Sida rhombifolia), barnyardgrass (Echinochloa crus-galli), cocklebur (Xanthium strumarium), common ragweed (Ambrosia elatior), corn (Zea mays), cotton (Gossypium hirsutum), eastern black nightshade (Solanum ptycanthum), fall panicum (Panicum dichotomiflorum), field bindweed (Convolvulus arvensis), giant foxtail (Setaria faberii), hairy beggarticks (Bidens pilosa), ivyleaf morningglory (Ipomoea hederacea), johnsongrass (Sorghum halepense), ladysthumb smartweed (Polygonum persicaria), lambsquarters (Chenopodium album), large crabgrass (Digitaria sanguinalis), purple nutsedge (Cyperus rotundus), redroot pigweed (Amaranthus retroflexus), soybean (Glycine max), surinam grass (Brachiaria decumbens), velvetleaf (Abutilon theophrasti) and wild poinsettia (Euphorbia heterophylla).
Treated plants and untreated controls were maintained in a greenhouse for approximately 14, to 21 days, after which all treated plants were compared to untreated controls and visually evaluated. Plant response ratings, summarized in Table C, were based upon a 0 to 100 scale where 0 was no effect and 100 was complete control. A dash response (−) means no test result.

[4] = tested on: soybean; assay: Test C postemergence soybean; format: in vivo, Glycine max; conditions: 0 to 100 scale, 0 no effect, 100 complete control
How it was run: as §1

[5] = tested on: velvetleaf; assay: Test C postemergence velvetleaf; format: in vivo, Abutilon theophrasti; conditions: 0 to 100 scale, 0 no effect, 100 complete control
How it was run: as §1

[6] = tested on: redroot pigweed; assay: Test E redroot pigweed; format: in vivo, Amaranthus retroflexus; conditions: Postemergence; for Plant response rating, Redroot pigweed: 0 to 100 scale; for Redroot pigweed plant response rating: Rate 250 g/ha, 0 to 100 scale where 0 is no effect and 100 is complete control
Description: as §2, with “in the 1- to 4-leaf stage” for “grown for various periods of time before treatment”
(§3) Plantings of these crops and weed species were adjusted to produce plants of appropriate size for the postemergence test. All plant species were grown using normal greenhouse practices. Crop and weed species include annual bluegrass (Poa annua), blackgrass (Alopecurus myosuroides), black nightshade (Solanum nigra), chickweed (Stellaria media), common poppy (Papaver rhoeas), deadnettle (Lamium amplexicaule), downy brome (Bromus tectorum), field violet (Viola arvensis), galium (Galium aparine), green foxtail (Setaria viridis), Italian ryegrass (Lolium multiflorum), jointed goatgrass (Aegilops cylindrica), kochia (Kochia scoparia), lambsquarters (Chenopodium album), littleseed canarygrass (Phalaris minor), rape (Brassica napus), redroot pigweed (Amaranthus retroflexus), Russian thistle (Salsola kali), scentless chamomile (Matricaria inodora), spring barley (Hordeum vulgare), sugar beet (Beta vulgaris), sunflower (Helianthus annuus), ivyleaf speedwell (Veronica hederaefolia), spring wheat (Triticum aestivum), winter wheat (Triticum aestivum), wild buckwheat (Polygonum convolvulus), wild mustard (Sinapis arvensis), wild oat (Avena fatua), windgrass (Apera spica-venti) and winter barley (Hordeum vulgare).
(§4) Treated plants and untreated controls were maintained in a greenhouse for approximately 21 to 28 days, after which all treated plants were compared to untreated controls and visually evaluated. […] A dash response (-) means no test result.

[7] = tested on: spring barley; assay: Test E spring barley; format: in vivo, Hordeum vulgare; conditions: Postemergence; for Plant response rating, Spring Barley: 0 to 100 scale; for Spring Barley plant response rating: Rate 250 g/ha, 0 to 100 scale where 0 is no effect and 100 is complete control
How it was run: (§5)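 Visual evaluation versus untreated controls after about 21 to 28 days in the greenhouse. Compound was in a surfactant-containing non-phytotoxic solvent; postemergence plants were treated at the 1- to 4-leaf stage, grown in a 60:40 sandy loam and potting mix blend.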

[8] = tested on: wild buckwheat; assay: Test E wild buckwheat; format: in vivo, Polygonum convolvulus; conditions: Postemergence; for Plant response rating, Wild buckwheat: 0 to 100 scale; for Wild buckwheat plant response rating: Rate 250 g/ha, 0 to 100 scale where 0 is no effect and 100 is complete control
How it was run: as §5

[9] = tested on: wild oat; assay: Test E wild oat; format: in vivo, Avena fatua; conditions: Postemergence; for Plant response rating, Wild oat: 0 to 100 scale
Description: as §2, with “in the 1- to 4-leaf stage” for “grown for various periods of time before treatment”
as §3, §4

[10] = tested on: common groundsel; assay: Test D common groundsel; format: in vivo, Senecio vulgaris; conditions: Postemergence, 0 to 100 scale
[11] = tested on: annual bluegrass; assay: Test E annual bluegrass; format: in vivo, Poa annua; conditions: Preemergence; for Annual bluegras plant response rating (0 to 100 scale): Rate 250 g/ha
[12] = tested on: littleseed canarygrass; assay: Test E littleseed canarygrass; format: in vivo, Phalaris minor; conditions: Preemergence; for LS canarygrass plant response rating (0 to 100 scale): Rate 250 g/ha
[13] = tested on: redroot pigweed; assay: Test E redroot pigweed; format: in vivo, Amaranthus retroflexus; conditions: Preemergence; for Redroot pigweed plant response rating (0 to 100 scale): Rate 250 g/ha
[14] = tested on: Russian thistle; assay: Test E Russian thistle; format: in vivo, Salsola kali; conditions: Preemergence; for Russian thistle plant response rating (0 to 100 scale): Rate 250 g/ha
[15] = tested on: sugar beet; assay: Test E sugar beet; format: in vivo, Beta vulgaris; conditions: Preemergence; for Sugar beet plant response rating (0 to 100 scale): Rate 250 g/ha
[16] = tested on: wild mustard; assay: Test E wild mustard; format: in vivo, Sinapis arvensis; conditions: Preemergence; for Wild mustard plant response rating (0 to 100 scale): Rate 250 g/ha
[17] = tested on: Green foxtail; assay: Test D green foxtail; format: in vivo; conditions: Rate 250 g/ha; Postemergence; 0 to 100 scale
[18] = tested on: Green foxtail; assay: Test D green foxtail; format: in vivo; conditions: Rate 250 g/ha; Postemergence; 0 to 100 scale; remark: listed apart in the source
[19] = Rate 125 g/ha, 0 is no effect, 100 is complete control
[20] = Rate 500 g/ha, 0 is no effect, 100 is complete control
[21] = Rate 32 g/ha, 0 no injury, 100 complete control
[22] = Rate 125 g/ha, 0 no injury, 100 complete control
[23] = Rate 125 g/ha, 0 to 100 scale (0 no effect, 100 complete control)
[24] = Rate 500 g/ha, 0 to 100 scale where 0 is no effect and 100 is complete control

CC(C)N(C(=O)n1oc(=O)n(C2CC2)c1=O)c1ccc(F)cc1 [Compound 242]
Plant response rating Arrowleaf sida ([1]; Rate 140 g/ha): 10
Plant response rating Arrowleaf sida ([1]; Rate 280 g/ha): 30
Plant response rating Arrowleaf sida ([1]; Rate 560 g/ha): 70
Plant response rating Arrowleaf sida ([1]; Rate 1120 g/ha): 90
Plant response rating Lambsquarters ([2]; Rate 140 g/ha): 0
Plant response rating Lambsquarters ([2]; Rate 280 g/ha): 0
Plant response rating Lambsquarters ([2]; Rate 560 g/ha): 0
Plant response rating Lambsquarters ([2]; Rate 1120 g/ha): 0
Plant response rating, Redroot pigweed ([3]; Rate 140 g/ha): 0
Plant response rating, Redroot pigweed ([3]; Rate 280 g/ha): 0
Plant response rating, Redroot pigweed ([3]; Rate 560 g/ha): 10
Plant response rating, Redroot pigweed ([3]; Rate 1120 g/ha): 50
Plant response rating, Soybean ([4]; Rate 140 g/ha): 20
Plant response rating, Soybean ([4]; Rate 280 g/ha): 25
Plant response rating, Soybean ([4]; Rate 560 g/ha): 25
Plant response rating, Soybean ([4]; Rate 1120 g/ha): 65
Plant response rating, Velvetleaf ([5]; Rate 140 g/ha): 0
Plant response rating, Velvetleaf ([5]; Rate 280 g/ha): 0
Plant response rating, Velvetleaf ([5]; Rate 560 g/ha): 40
Plant response rating, Velvetleaf ([5]; Rate 1120 g/ha): 60
Plant response rating, Redroot pigweed ([6]; Rate 62 g/ha): 0
Plant response rating, Redroot pigweed [6, 19]: 0
Redroot pigweed plant response rating [6]: 0
Plant response rating, Redroot pigweed [6, 20]: 40
Plant response rating, Spring Barley ([7]; Rate 62 g/ha): 5
Plant response rating, Spring Barley [7, 19]: 20
Spring Barley plant response rating [7]: 20
Plant response rating, Spring Barley [7, 20]: 20
Plant response rating, Wild buckwheat ([8]; Rate 62 g/ha): 50
Plant response rating, Wild buckwheat [8, 19]: 10
Wild buckwheat plant response rating [8]: 10
Plant response rating, Wild buckwheat [8, 20]: 0
Plant response rating, Wild oat [9, 19]: 0
Plant response rating, Wild oat [9, 20]: 20
Plant response rating, Com. groundsel ([10]; Rate 16 g/ha, 0 no injury, 100 complete control): 0
Plant response rating, Com. groundsel [10, 21]: 100
Plant response rating, Com. groundsel ([10]; Rate 64 g/ha, 0 no injury, 100 complete control): 90
Plant response rating, Com. groundsel [10, 22]: 90
Plant response rating, Com. groundsel ([10]; Rate 250 g/ha): 100
Plant response rating, Annual bluegras [11, 23]: 100
Annual bluegras plant response rating (0 to 100 scale) [11]: 100
Plant response rating, Annual bluegras [11, 24]: 100
Plant response rating, LS canarygrass [12, 23]: 100
LS canarygrass plant response rating (0 to 100 scale) [12]: 100
Plant response rating, LS canarygrass [12, 24]: 100
Plant response rating, Redroot pigweed [13, 23]: 90
Redroot pigweed plant response rating (0 to 100 scale) [13]: 100
Plant response rating, Redroot pigweed [13, 24]: 100
Plant response rating, Russian thistle [14, 23]: 20
Russian thistle plant response rating (0 to 100 scale) [14]: 30
Plant response rating, Russian thistle [14, 24]: 50
Plant response rating, Sugar beet [15, 23]: 30
Sugar beet plant response rating (0 to 100 scale) [15]: 50
Plant response rating, Sugar beet [15, 24]: 65
Plant response rating, Wild mustard [16, 23]: 65
Wild mustard plant response rating (0 to 100 scale) [16]: 65
Plant response rating, Wild mustard [16, 24]: 70
Plant response rating, Green foxtail [17]: 100
Plant response rating, Green foxtail [18]: 100

CC(C)N(C(=O)n1oc(=O)n(C)c1=O)c1ccc(F)cc1 [Compound 138]
Plant response rating Arrowleaf sida ([1]; Rate 140 g/ha): 0
Plant response rating Arrowleaf sida ([1]; Rate 1120 g/ha): 70
Plant response rating Lambsquarters ([2]; Rate 140 g/ha): 0
Plant response rating Lambsquarters ([2]; Rate 280 g/ha): 0
Plant response rating Lambsquarters ([2]; Rate 560 g/ha): 10
Plant response rating Lambsquarters ([2]; Rate 1120 g/ha): 20
Plant response rating, Redroot pigweed ([3]; Rate 140 g/ha): 0
Plant response rating, Redroot pigweed ([3]; Rate 280 g/ha): 10
Plant response rating, Redroot pigweed ([3]; Rate 560 g/ha): 40
Plant response rating, Redroot pigweed ([3]; Rate 1120 g/ha): 70
Plant response rating, Soybean ([4]; Rate 140 g/ha): 10
Plant response rating, Soybean ([4]; Rate 280 g/ha): 30
Plant response rating, Soybean ([4]; Rate 560 g/ha): 30
Plant response rating, Soybean ([4]; Rate 1120 g/ha): 40
Plant response rating, Velvetleaf ([5]; Rate 140 g/ha): 0
Plant response rating, Velvetleaf ([5]; Rate 280 g/ha): 60
Plant response rating, Velvetleaf ([5]; Rate 560 g/ha): 70
Plant response rating, Velvetleaf ([5]; Rate 1120 g/ha): 80
Plant response rating, Redroot pigweed ([6]; Rate 125 g/ha): 20
Redroot pigweed plant response rating [6]: 10
Plant response rating, Spring Barley ([7]; Rate 125 g/ha): 0
Spring Barley plant response rating [7]: 5
Plant response rating, Wild buckwheat ([8]; Rate 125 g/ha): 0
Wild buckwheat plant response rating [8]: 0
Plant response rating, Wild oat ([9]; Rate 125 g/ha): 0
Wild oat plant response rating ([9]; Rate 250 g/ha, 0 to 100 scale where 0 is no effect and 100 is complete control): 0
Annual bluegras plant response rating (0 to 100 scale) [11]: 70
Plant response rating, LS canarygrass [12, 23]: 70
LS canarygrass plant response rating (0 to 100 scale) [12]: 85
Plant response rating, Redroot pigweed [13, 23]: 90
Redroot pigweed plant response rating (0 to 100 scale) [13]: 90
Plant response rating, Russian thistle [14, 23]: 10
Russian thistle plant response rating (0 to 100 scale) [14]: 20
Plant response rating, Sugar beet [15, 23]: 0
Sugar beet plant response rating (0 to 100 scale) [15]: 50
Plant response rating, Wild mustard [16, 23]: 40
Wild mustard plant response rating (0 to 100 scale) [16]: 55

CC(C)N(C(=O)n1oc(=O)n(C2CCCCCC2)c1=O)c1ccc(F)cc1F [Compound 342]
Plant response rating, Com. groundsel [10, 21]: 0
Plant response rating, Com. groundsel [10, 22]: 0
Plant response rating, Com. groundsel ([10]; Rate 250 g/ha): 0
Plant response rating, Green foxtail [17]: 100
Plant response rating, Green foxtail [18]: 100
